What was measured:
[1] = molecular target: T1, human estrogen receptor beta (hERβ 530) (Homo sapiens, UniProt Q92731); assay: Transactivation assay 2: HEK293 cells stably transfected with pERE2-ALP and human estrogen receptor beta; format: cell-based; details: read-out: potency at the estrogen receptor β-subtype, EC50
T1 construct: expressed in transfected cells
Experimental: Transactivation Assay 2: Transactivation Assay in Human Embryonic Kidney 293 Cells Stably Transfected with pERE2-ALP and Human Estrogen Receptor Beta
Generation of stable HEK293 cell lines (CRL-1573; American Type Culture Collection) expressing the reporter vector pERE2-ALP and human estrogen receptor beta (hERβ 530) have been described (Mol Pharmacol 1998, 54, 105-112; Endocrinology 2002, 143, 1558-1561),
The cells were seeded in 384-well plates at 12 500 cells per well in Ham's F12 Coon's modification (without phenol red) with 10% dextran-coated charcoal treated (DCC) fetal bovine serum (FBS), 2 mM L-glutamine and 50 μg/ml gentamicin. After 24 h incubation (37° C., 5% CO2) the seeding medium was discarded and replaced with 20 μl Ham's F12 Coon's modification (without phenol red) with 1.5 DCC-FCS, 2 mM L-glutamine and supplemented with 100 U/ml penicillin and 100 μg/ml streptomycin. The selected compounds were added to the wells in 12 concentrations ranging from […] to 33 μM. The compounds were dissolved in 100% dimethylsulfoxide (DMSO) and the final concentration of DMSO in the assay was 0.1%. After 72 h incubation (37° C., 5% CO2) the medium was assayed for ALP activity by a chemiluminescence assay; a 10 μl aliquot of the conditioned medium was mixed with 100 μl assay buffer (0.1 M diethanolamine, 1 mM MgCl2) and 0.5 mM disodium 3-(4-methoxyspiro 1,2-dioxetane-3,2′-(5′-chloro)-tricyclo[3.3.1.13,7]decan-4-yl)phenyl phosphate (CSPD) (Tropix, Applied Biosystems) and incubated for 20 min at 37° C. and 15 min at room temperature before measurement of the chemiluminescent signal (one second per well) in a Wallac Microbeta Trilux 1450-028 (PerkinElmer). The ALP activity expressed in LCPS is directly proportional to the level of ALP expressed by the cells. The half maximal effective concentrations of the test compounds (EC50) were calculated from the curves fitted to the concentration-response data with a four parameter logistic model in XLfit software version 2.0 (IDBS) or later.

human ERβ (ERβ-LBD) = molecular target: T2, human ERβ (ERβ-LBD) (Homo sapiens, UniProt Q92731); assay: Binding assay 1: estrogen receptor SPA binding assay (3H-E2 displacement), ERβ; details: read-out: binding affinity to the estrogen receptor β-subtype, IC50
T2 construct: ERβ (ERβ-LBD, pET-N-AT #1, aa 255-530); made in house; host or cells: E. coli BL21 (DE3) pBirA
Experimental: Binding Assay 1: Estrogen Receptor Binding Assay
The estrogen receptor ligand binding assays are designed as scintillation proximity assays (SPA), employing the use of tritiated estradiol (^3H-E2) and recombinant expressed biotinylated estrogen receptor binding domains. The binding domains of human ERα (ERα-LBD, pET-N-AT #1, aa 301-595) and ERβ (ERβ-LBD, pET-N-AT #1, aa 255-530) proteins are produced in E. coli ((BL21, (DE3), pBirA)) at 22 C in 2×LB medium supplemented with 50 uM biotin. After 3 h of IPTG induction (0.55 mM), cells are harvested by centrifugation at 7300×g for 15 min and cell pellets stored frozen in −20 C. Extraction of ERα and ERβ are performed using 5 g of cells suspended in 50 mL of extraction buffer (50 mM Trig, pH 8.0, 100 mM KCl, 4 mM EDTA, 4 mM DDT and 0.1 mM PMSF). The cell suspension is run twice through a Microfluidizer M-110L (Microfluidics) and centrifuged at 15,000×g for 60 min. The supernatant is aliquoted and stored in −70 C.
Dilute ERα-LBD or ERβ-LBD extracts in assay buffer (18 mM K2HPO4, 2 mM KH2PO4, 20 mM NasMoO4, 1 mM EDTA, 1 mM TCEP) 1:676 and 1:517 for alpha and beta respectively. The diluted receptor concentrations should be 900 fmol/L. Preincubate the extracts with streptavidin coated polyvinyltoluene SPA beads (RPNQ0007, GE Healthcare) at a concentration of 0.43 mg/mL for 1 hr at room temperature.
Test compounds are evaluated over a range of concentrations from 157 μM to 37.5 pM. The test compound stock solutions should be made in 100% DMSO at 5× of the final concentration desired for testing in the assay. The amount of DMSO in the test wells of the 384 well plate will be 20%. Add 18 μl aliquots of test compounds to the assay plates followed by 35 μl of the preincubated receptor/SPA bead mix and finally add 35 μl of 3 nM ^3H-E2. Cover the plates with a plastic sealer, centrifuge for 1 minute at 1000 rpm and equilibrate over night on a shaker at room temperature. The following morning, centrifuge the plates 5 minutes at 2000 rpm and measure on a plate scintillation counter e.g. a PerkinElmer Microbeta 1450 Trilux.
For compounds able to displace 3[H]-E2 from the receptor an IC50-value (the concentration required to inhibit 50% of the binding of 3[H]-E2) is determined by a non-linear four parameter logistic model; b=((bmax−bmin)/(1+(I/IC50)S))+bmin I is added concentration of binding inhibitor, IC50 is the concentration of inhibitor at half maximal binding and S is a slope factor. The Microbeta-instrument generates the mean cpm (counts per minute) value/minute and corrects for individual variations between the detectors thus generating corrected cpm values.

T2 sequence (Q92731 255-530): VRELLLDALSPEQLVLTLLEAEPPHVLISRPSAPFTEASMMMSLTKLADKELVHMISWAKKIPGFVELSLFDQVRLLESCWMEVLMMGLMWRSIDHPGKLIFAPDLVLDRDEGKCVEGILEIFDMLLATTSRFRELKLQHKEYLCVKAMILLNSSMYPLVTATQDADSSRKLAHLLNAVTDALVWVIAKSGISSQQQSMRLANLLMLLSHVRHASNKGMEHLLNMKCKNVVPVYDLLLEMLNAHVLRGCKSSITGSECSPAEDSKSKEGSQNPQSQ
T1 sequence (Q92731 whole entry): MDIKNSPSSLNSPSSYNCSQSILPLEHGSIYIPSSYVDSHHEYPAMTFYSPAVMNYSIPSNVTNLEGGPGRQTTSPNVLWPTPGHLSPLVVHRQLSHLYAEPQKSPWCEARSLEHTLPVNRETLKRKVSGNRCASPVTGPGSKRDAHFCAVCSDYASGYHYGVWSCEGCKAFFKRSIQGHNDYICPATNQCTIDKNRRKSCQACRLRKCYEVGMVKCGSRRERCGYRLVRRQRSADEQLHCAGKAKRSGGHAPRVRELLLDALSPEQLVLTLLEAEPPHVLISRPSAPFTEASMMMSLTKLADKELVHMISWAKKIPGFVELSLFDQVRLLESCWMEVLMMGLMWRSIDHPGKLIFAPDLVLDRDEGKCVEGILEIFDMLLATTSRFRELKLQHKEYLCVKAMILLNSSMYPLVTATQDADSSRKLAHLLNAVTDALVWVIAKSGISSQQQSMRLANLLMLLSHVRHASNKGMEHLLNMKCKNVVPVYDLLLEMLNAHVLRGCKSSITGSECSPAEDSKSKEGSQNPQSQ

Compound	EC50 [1] [nM]	IC50 (human ERβ (ERβ-LBD)) [nM]
C/C=C(/C)c1c(/C(N)=N/O)c2ccccc2n1-c1ccc(O)cc1 [Example 191, (Z)-2-((Z)-but-2-en-2-yl)-N′-hydroxy-1-(4-hydroxyphenyl)-1H-indole-3-carboximidamide]	1 to 50	1 to 200
Cc1cccn1-c1c(/C(N)=N/O)c2ccccc2n1-c1ccc(O)cc1 [Example 188, (Z)-N′-hydroxy-1-(4-hydroxyphenyl)-2-(2-methyl-1H-pyrrol-1-yl)-1H-indole-3-carboximidamide]	1 to 50	1 to 200
C/C=C\c1c(C#N)c2ccccc2n1-c1ccc(O)cc1 [Example 68, 1-(4-Hydroxy-phenyl)-2-((Z)-propenyl)-1H-indole-3-carbonitrile]	1 to 50	1 to 200
C=C(C)c1c(-c2ccccc2)n(-c2ccc(O)cc2)c2ccccc12 [Example 163, 4-(3-Isopropenyl-2-phenyl-indol-1-yl)-phenol]	1 to 50	1 to 200
CC(C)=Cc1c(/C(N)=N/O)c2cc(F)ccc2n1-c1ccc(O)cc1 [Example 223, (Z)-5-fluoro-N′-hydroxy-1-(4-hydroxyphenyl)-2-(2-methylprop-1-enyl)-1H-indole-3-carboximidamide]	1 to 50	1 to 200
CC(C)=Cc1c(C#N)c2ccccc2n1-c1ccc(O)cc1 [Example 39, 2-(Isobut-1-enyl)-1-(4-hydroxyphenyl)-1H-indole-3-carbonitrile]	1 to 50	1 to 200
Cc1noc(C)c1-c1c(C(N)=NO)c2ccccc2n1-c1ccc(O)cc1F [Example 235, (Z)-2-(3,5-dimethylisoxazol-4-yl)-1-(2-fluoro-4-hydroxyphenyl)-N′-hydroxy-21H-indole-3-carboximidamide]	1 to 50	1 to 200
CC(C)=Cc1c(C#N)c2cc(F)ccc2n1-c1ccc(O)cc1 [Example 220, 5-Fluoro-1-(4-hydroxy-penyl)-2-(2-methyl-prop-1-enyl)-1H-indole-3-carbonitrile]	1 to 50	1 to 200
Cc1noc(C)c1-c1c(-c2ccccc2)c2ccccc2n1-c1ccc(O)cc1 [Example 42, 4-(2-(3,5-dimethylisoxazol-4-yl)-3-phenyl-1H-indol-1-yl)phenol]	1 to 50	1 to 200
Cc1noc(C)c1-c1c(/C(N)=N/O)c2ccccc2n1-c1ccc(O)cc1 [Example 11, (Z)-2-(3,5-dimethylisoxazol-4-yl)-N′-hydroxy-1-(4-hydroxyphenyl)-1H-indole-3-carboximidamide]	1 to 50	1 to 200
Cc1ccc(C)n1-c1c(/C(N)=N/O)c2ccccc2n1-c1ccc(O)cc1 [Example 194, (Z)-2-(2,5-dimethyl-1H-pyrrol-1-yl)-N′-hydroxy-1-(4-hydroxyphenyl)-1H-indole-3-carboximidamide]	1 to 50	1 to 200
Cc1noc(C)c1-c1c(/C(N)=N/O)c2cc(F)ccc2n1-c1ccc(O)cc1 [Example 221, (Z)-2-(3,5-dimethylisoxazol-4-yl)-5-fluoro-N′-hydroxy-1-(4-hydroxyphenyl)-1H-indole-3-carboximidamide]	1 to 50	1 to 200

Reference: patent US8653072B2, “Estrogen receptor ligands” (Karo Bio AB, priority 2008, dated 2014)
